Read-outs that look alike come from different tables or passages of the source.
Assays:
HepG2 cells [1] = assay: Cellular ATP content of HepG2 cells in glucose or galactose medium (ATP bioluminescent assay); assay type: cell-based; conditions: 2 h; for decrease in ATP content in galactose medium compared with glucose medium: up to 300 µM; for EC50: Homo sapiens, concentration reducing cellular ATP content by 50%; for EC50ATPglu/EC50ATPgal: ratio ≥ 2 identifies a mitochondrial liability
Procedure: Metabolic switching of cells was performed based on work previously described by ([[…] et al., 2015]). Briefly, 24 h prior to metabolic switch, HepG2 cells were collected by trypsinization and seeded on a collagen-coated flat-bottomed 96-well plate (20 000 cells/50 μl/well) and incubated (37°C, 5% CO2) overnight. […] Flutamide, 2-hydroxyflutamide and bicalutamide stock solutions were prepared in DMSO and diluted further in the appropriate medium. Compounds (50 μl) were then added to each well and cells were incubated for 2 h (37 °C, 5% CO2). All assays used ≤ 0.5% DMSO as a vehicle control. […] LDH content of the cells and supernatant was assessed using a cytotoxicity detection kit according to the manufacturer's instructions. ATP content was assessed using an ATP bioluminescent assay according to the manufacturer's instructions. Briefly, 10 μl of cell lysate or ATP standard curve solutions were added to a white-walled 96-well plate before addition of 40 μl ATP assay mix. Protein content of all wells was then assessed using a BCA assay applied to 10 μl of cell lysate and standards. LDH (490 nm), BCA (570 nm), and ATP assay luminescence were then measured using a plate reader (Varioskan, Thermo Scientific). ATP content readings were normalized to protein content. Experiments were conducted in a minimum of triplicate to ensure the reliability of single values. EC50 data were determined by nonlinear regression analysis using GraphPad Prism 5.0. Normality was assessed using a Shapiro-Wilk statistical test. Statistical significance was determined by an unpaired t-test for parametric data and a Mann-Whitney U test for non-parametric data using StatsDirect 2.7.9. P < .05 was taken as showing a significant difference.

[2] = tested on: mitochondrial respiratory complex I; assay: Complex I-linked respiration assay in permeabilized cells; assay type: cell-based; conditions: for concentration inducing a significant reduction in complex I activity: permeabilized HepG2 cells, complex I-stimulated maximal respiration vs vehicle control, 10–250 µM
Procedure: Culture medium was replaced with MAS buffer containing constituents to stimulate oxygen consumption via complex I (as previously without FCCP), complex II (ADP; 4.6 mM, succinate; 20 mM, rotenone; 1 µM, BSA; 0.2% w/v, PMP; 1 nM), or complex III (ADP; 4.6 mM, duroquinol; 500 μM, rotenone; 1 μM, malonic acid; 40 μM, BSA; 0.2% w/v, PMP; 1 nM) dependent on the respiratory complex of interest. […] Changes in complex II activity were also assessed at lower compound concentrations; 2–30 μM (Supplementary Figure S1). Complex I, II, and III activity were defined by the change in complex I, II, or III-stimulated maximal respiration respectively compared with vehicle control.
Following completion of OCR assays, medium was removed from all wells and 20 µl of somatic cell ATP releasing agent was added to each well before shaking for 1 min and transfer of 10 µl of lysate to a 96-well plate and performance of a BCA assay according to the manufacturer’s instructions. Protein content per well was used to normalize OCR.

HepG2 cells [3] = assay: Assessment of NAD+/NADH ratio; assay type: cell-based; conditions: 2 h, glucose medium, 30–500 µM
Procedure: HepG2 cells were collected by trypsinization and seeded on a 24-well plate (450 000 cells/500 µl/well) and incubated overnight in glucose medium (37 °C, 5% CO2). […] NAD^+ and NADH concentrations were measured in lysates using a NAD^+/NADH ratio assay kit according to the manufacturer’s instructions.

androgen receptor = tested on: androgen receptor; design: method as in Shet et al., 1997; conditions: metabolite compared with parent compound; ref Shet et al., 1997; cited from earlier work
[4] = ref Chu et al., 1998; Wysowski and Fourcroy, 1996; cited from earlier work
[5] = galactose medium, read-out: EC50ATP (μM) Galactose
[6] = glucose medium, read-out: EC50ATP (μM) Glucose

Compound	decrease in ATP content in galactose medium compared with glucose medium (HepG2 cells [1])	EC50 (HepG2 cells [1]; [5])	EC50 (HepG2 cells [1]; [6])	concentration inducing a significant reduction in complex I activity [2]	NAD+/NADH ratio (HepG2 cells [3])	concentration significantly decreasing NAD+/NADH ratio (HepG2 cells [3])	androgen receptor binding affinity (androgen receptor)	EC50ATPglu/EC50ATPgal (HepG2 cells [1])	EC50ATPglu/EC50ATPgal (HepG2 cells [1]; listed as flutamide)	OCR upon compound injection, complex I assay ([2]; permeabilised HepG2 cells, up to 250 µM)	cases of hospitalization or death (idiosyncratic DILI) in treated patients [4]
CC(C)(O)C(=O)Nc1ccc([N+](=O)[O-])c(C(F)(F)F)c1 [2-hydroxyflutamide]	significantly more in the galactose medium	48.5 µM	267 µM	≥ 30 µM	significantly decreased	≥ 100 µM	higher androgen receptor binding affinity than its parent compound				
CC(C)C(=O)Nc1ccc([N+](=O)[O-])c(C(F)(F)F)c1 [Flutamide]	significantly more in the galactose medium	43.9 µM	255 µM	≥ 30 µM	significantly decreased	≥ 100 µM		5.82 (0.03)	≥ 2	immediate concentration-dependent reduction in OCR	0.03%
